Data: patent US20240279191A1 (The General Hospital Corporation, priority 2021, published 2024)

Experiments:
TEAD2 = TEAD2 (Homo sapiens, UniProt Q15562); test: Inhibition of TEAD2 auto-palmitoylation in vitro
TEAD4 = TEAD4 (Homo sapiens, UniProt Q15561); test: Inhibition of TEAD4 auto-palmitoylation in vitro
Chain of TEAD4 (Q15561 whole entry, species assumed): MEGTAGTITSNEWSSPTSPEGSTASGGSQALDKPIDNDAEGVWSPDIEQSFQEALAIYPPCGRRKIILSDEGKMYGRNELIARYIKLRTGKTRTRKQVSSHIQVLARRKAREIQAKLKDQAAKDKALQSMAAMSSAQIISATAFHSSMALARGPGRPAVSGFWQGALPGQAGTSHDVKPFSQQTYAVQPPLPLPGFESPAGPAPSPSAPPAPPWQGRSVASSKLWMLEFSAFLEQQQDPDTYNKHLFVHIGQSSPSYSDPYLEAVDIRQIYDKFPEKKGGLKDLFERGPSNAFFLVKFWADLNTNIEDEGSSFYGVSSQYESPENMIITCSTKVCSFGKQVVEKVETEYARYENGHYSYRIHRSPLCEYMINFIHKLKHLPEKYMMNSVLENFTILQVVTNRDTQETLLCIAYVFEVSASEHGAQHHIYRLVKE

Chain of TEAD2 (Q15562 whole entry): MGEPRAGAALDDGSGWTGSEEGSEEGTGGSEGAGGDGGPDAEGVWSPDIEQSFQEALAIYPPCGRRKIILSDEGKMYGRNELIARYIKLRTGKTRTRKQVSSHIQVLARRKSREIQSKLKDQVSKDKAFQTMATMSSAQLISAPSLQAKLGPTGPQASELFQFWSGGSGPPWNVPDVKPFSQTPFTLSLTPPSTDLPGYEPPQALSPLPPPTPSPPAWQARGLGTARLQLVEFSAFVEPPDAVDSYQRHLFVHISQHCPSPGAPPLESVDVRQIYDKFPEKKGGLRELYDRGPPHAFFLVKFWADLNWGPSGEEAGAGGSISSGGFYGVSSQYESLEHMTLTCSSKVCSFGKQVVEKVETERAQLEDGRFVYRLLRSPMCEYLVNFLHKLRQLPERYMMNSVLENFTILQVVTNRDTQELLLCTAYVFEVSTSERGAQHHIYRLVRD

IC50 (TEAD2): 156 nM | IC50 (TEAD4): 38 nM
Compound: O=C(Nc1ccccc1)N1CCN(C(=O)c2cccc(OCCC3CCCCC3)c2)CC1 [TM2, 4-(3-(2-cyclohexylethoxy)benzoyl)-N-phenylpiperazine-1-carboxamide]
